Each structure is given as a SMILES string. Where a SMILES comes first, the peptide text is derived from it. The star is where a group is joined. Cbz = O=C(OCc1ccccc1)*

Here are results for 8 molecules from publication PMC6757289, “Design and Characterization of SGK3-PROTAC1, an Isoform Specific SGK3 Kinase PROTAC Degrader” (ACS Chemical Biology, 2019).

The subject of one test is ZR-75-1 cells. The experiment in a line: Cell growth (confluency, Incucyte S3). It is filed as cell-based. The settings on record: ZR-75-1, 1 μM. Here is the method:
(§1) Figure 6 SGK3-PROTAC1-mediated degradation of SGK3 further inhibiting the growth of cancer cell lines treated with PI3K-Akt pathway inhibitors. CAMA-1 (A, C) and ZR-75-1 (B, D) were treated with compounds as indicated either as monotherapy or in combination, and confluency was measured on the Incucyte S3 every 4 h for up to 4 weeks.
(§2) For growth assays, ZR-75-1 cells were seeded in 96-well plates at a density of 6000 cells/well and left to adhere overnight. Cells were then treated with compounds as described in the figure legends and imaged every 4 h on the Incucyte S3 (Essen Bioscience) for up to 4 weeks to give a measure of cell confluency. Media were refreshed every 4–5 days.
(§3) Supplementary Figure S3. SGK3-PROTAC compounds have no effect on cell growth. CAMA-1 and ZR-75-1
(§4) confluency was m easured every 4 h on Incucyte S3.
(§5) (1 picture or pasted object on this page, not shown here)

The test system of another test is CAMA-1 cells. The experiment in a line: Cell growth (confluency, Incucyte S3). Format: cell-based. The settings on record: CAMA-1, 1 μM. Here is the method: as §1, §2, §3, §4, §5
Another test concerns the target S6K1 (Homo sapiens, UniProt P23443, T412E). The experiment in a line: IC50 determination, biochemical kinase assay. The settings on record: not in the presence of VHL. As for the experimental part: (§6) IC50 determination was performed at the MRC PPU International Centre for Protein Kinase Profiling, according to the protocol previously described[47],[48]
The target of test [1] is T1, SGK3 (Homo sapiens, UniProt Q96BR1).
T1 sequence (Q96BR1 1-496): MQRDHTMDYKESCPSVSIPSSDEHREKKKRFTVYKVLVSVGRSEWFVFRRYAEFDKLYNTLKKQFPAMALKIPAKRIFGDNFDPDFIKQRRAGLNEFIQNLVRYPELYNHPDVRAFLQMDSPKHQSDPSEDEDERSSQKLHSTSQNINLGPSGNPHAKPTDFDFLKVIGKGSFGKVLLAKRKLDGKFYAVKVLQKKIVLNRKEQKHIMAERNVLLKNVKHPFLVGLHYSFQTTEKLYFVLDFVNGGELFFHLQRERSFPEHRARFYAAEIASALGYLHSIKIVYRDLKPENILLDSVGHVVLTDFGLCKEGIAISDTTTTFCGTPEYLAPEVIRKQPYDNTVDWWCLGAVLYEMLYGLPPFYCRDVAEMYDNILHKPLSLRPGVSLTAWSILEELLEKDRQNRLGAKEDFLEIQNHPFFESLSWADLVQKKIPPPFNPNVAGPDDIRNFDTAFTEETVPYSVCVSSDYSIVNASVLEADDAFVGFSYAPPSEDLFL
The experiment in a line: IC50 determination, biochemical kinase assay. The conditions noted are these: for IC50: not in the presence of VHL. As for the experimental part: as §6

A further test concerns the target T2, SGK1 (Homo sapiens, UniProt O00141, S422D).
T2 sequence (O00141 60-431 S422D limits assumed): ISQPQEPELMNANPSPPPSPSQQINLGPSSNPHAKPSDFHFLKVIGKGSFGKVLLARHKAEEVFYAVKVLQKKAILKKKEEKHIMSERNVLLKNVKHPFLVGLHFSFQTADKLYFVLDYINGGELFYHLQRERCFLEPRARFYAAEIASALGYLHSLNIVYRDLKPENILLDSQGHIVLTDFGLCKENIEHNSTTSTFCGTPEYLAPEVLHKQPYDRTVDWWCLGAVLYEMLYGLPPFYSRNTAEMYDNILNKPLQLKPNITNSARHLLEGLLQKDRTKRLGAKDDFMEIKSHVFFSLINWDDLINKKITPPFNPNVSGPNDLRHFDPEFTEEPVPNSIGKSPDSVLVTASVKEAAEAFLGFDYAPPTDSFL
Nature of the test: IC50 determination, biochemical kinase assay. The settings on record: not in the presence of VHL.

Test [2] addresses T1, SGK3. Nature of the test: SGK3 degradation in HEK293 cells, immunoblot. It is filed as cell-based. More on the design: reduced endogenous SGK isoform or S6K1 expression when administered to HEK293 cells for 48 h; endogenous in cells; host or cells: HEK293. The settings on record: for effect on SGK3-PROTAC1-mediated degradation of SGK3: HEK293, pretreatment, 6 h 0.3 µM SGK3-PROTAC1; for effect on DAT1-induced degradation of SGK3: HEK293, MLN4924 3 μM, MG132 50 μM. Here is the method:
Figure 1 Design and cellular activity of first generation SGK3 PROTACs. (A) Structure of compound 14H, previously published by Sanofi as an inhibitor of SGK3. (B) Starting material for SGK PROTACs. […] (C) Structures of first generation SGK PROTACs. SGK and E3 ligase targeting motifs were joined by a 3xPEG linker to produce the PROTACs. (D) HEK293 cells were treated for 48 h with increasing concentrations of each PROTAC compound from 0.1 nM to 10 μM. Cell lysates were subjected to immunoblot analysis with the indicated antibodies, and SGK3 protein levels were quantified in Image Studio Lite software (Licor).
Figure 2 Design and cellular evaluation of second and third generation SGK PROTACs. (A) Chemical structure of compounds DAT5–12, expanding upon DAT1. (B) Chemical structure of cisSGK3-PROTAC1. (C) HEK293 cells were treated for 48 h with increasing concentrations of each PROTAC compound from 1 nM to 10 μM. Cell lysates were subjected to immunoblot analysis with the indicated antibodies, and SGK3 protein levels quantified in Image Studio Lite software. (D) HEK293 cells were treated for 48 h with increasing concentrations of each PROTAC compound from 1 nM to 10 μM. Cell lysates were subjected to immunoblot analysis with the indicated antibodies, and SGK3 and S6K1 protein levels were quantified in Image Studio Lite software. TEXT PRINTED IN THE PICTURE: (C) DAT1: % SGK3: 100 (48h Treatment (μM): 0); % SGK3: 94 (48h Treatment (μM): 0.001); % SGK3: 82 (48h Treatment (μM): 0.01); % SGK3: 70 (48h Treatment (μM): 0.1); % SGK3: 52 (48h Treatment (μM): 1); % SGK3: 31 (48h Treatment (μM): 10) | (C) DAT5: % SGK3: 100 (48h Treatment (μM): 0); % SGK3: 104 (48h Treatment (μM): 0.001); % SGK3: 82 (48h Treatment (μM): 0.01); % SGK3: 92 (48h Treatment (μM): 0.1); % SGK3: 73 (48h Treatment (μM): 1); % SGK3: 36 (48h Treatment (μM): 10) | (C) DAT6: % SGK3: 100 (48h Treatment (μM): 0); % SGK3: 105 (48h Treatment (μM): 0.001); % SGK3: 90 (48h Treatment (μM): 0.01); % SGK3: 71 (48h Treatment (μM): 0.1); % SGK3: 44 (48h Treatment (μM): 1); % SGK3: 20 (48h Treatment (μM): 10) | (C) DAT7: % SGK3: 100 (48h Treatment (μM): 0); % SGK3: 77 (48h Treatment (μM): 0.001); % SGK3: 80 (48h Treatment (μM): 0.01); % SGK3: 95 (48h Treatment (μM): 0.1); % SGK3: 37 (48h Treatment (μM): 1); % SGK3: 29 (48h Treatment (μM): 10) | (D) DAT8: % SGK3: 100 (48h Treatment (μM): 0); % SGK3: 97 (48h Treatment (μM): 0.001); % SGK3: 107 (48h Treatment (μM): 0.01); % SGK3: 34 (48h Treatment (μM): 0.1); % SGK3: 24 (48h Treatment (μM): 1); % SGK3: 19 (48h Treatment (μM): 10) | (D) DAT9: % SGK3: 100 (48h Treatment (μM): 0); % SGK3: 105 (48h Treatment (μM): 0.001); % SGK3: 71 (48h Treatment (μM): 0.01); % SGK3: 40 (48h Treatment (μM): 0.1); % SGK3: 11 (48h Treatment (μM): 1); % SGK3: 12 (48h Treatment (μM): 10) | (D) DAT10: % SGK3: 100 (48h Treatment (μM): 0); % SGK3: 100 (48h Treatment (μM): 0.001); % SGK3: 76 (48h Treatment (μM): 0.01); % SGK3: 54 (48h Treatment (μM): 0.1); % SGK3: 11 (48h Treatment (μM): 1); % SGK3: 9 (48h Treatment (μM): 10) | (D) DAT11: % SGK3: 100 (48h Treatment (μM): 0); % SGK3: 96 (48h Treatment (μM): 0.001); % SGK3: 97 (48h Treatment (μM): 0.01); % SGK3: 41 (48h Treatment (μM): 0.1); % SGK3: 32 (48h Treatment (μM): 1); % SGK3: 29 (48h Treatment (μM): 10) | (D) DAT12: % SGK3: 100 (48h Treatment (μM): 0); % SGK3: 106 (48h Treatment (μM): 0.001); % SGK3: 84 (48h Treatment (μM): 0.01); % SGK3: 79 (48h Treatment (μM): 0.1); % SGK3: 32 (48h Treatment (μM): 1); % SGK3: 29 (48h Treatment (μM): 10) DOUBTS OF THE COPYIST ABOUT THIS PICTURE: All % SGK3 values are quantification numbers printed under immunoblot lanes; each was assigned to a concentration by lane position / DAT9 and DAT10, % SGK3: the first numbers are printed run together ('100105', '100100') and were split as 100 | 105 and 100 | 100
Figure 3 Characterization of cellular activities of SGK3-PROTAC1 and cisSGK3-PROTAC1. […]

Chain of S6K1 (P23443 1-421 T412E limits assumed): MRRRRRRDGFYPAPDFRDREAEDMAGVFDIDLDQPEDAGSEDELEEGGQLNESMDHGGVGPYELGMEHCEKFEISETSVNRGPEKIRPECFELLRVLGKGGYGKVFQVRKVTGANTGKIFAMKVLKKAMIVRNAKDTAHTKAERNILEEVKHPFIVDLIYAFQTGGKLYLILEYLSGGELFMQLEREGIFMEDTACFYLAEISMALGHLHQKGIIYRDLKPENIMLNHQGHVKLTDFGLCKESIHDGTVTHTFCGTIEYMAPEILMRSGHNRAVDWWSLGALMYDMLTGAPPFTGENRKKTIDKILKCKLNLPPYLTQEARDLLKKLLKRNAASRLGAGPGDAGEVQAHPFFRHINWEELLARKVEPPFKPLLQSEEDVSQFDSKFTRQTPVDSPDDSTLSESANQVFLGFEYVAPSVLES

In the case of `NC1(C(=O)N[C@@H](CCO)c2ccc(Cl)cc2)CCN(c2ncnc3[nH]ccc23)CC1` [AZD5363, reference compound], the “growth, PI3K or Akt inhibitor monotherapy” value in the test with ZR-75-1 cells and with CAMA-1 cells was “substantially reduced growth” each time.

In the case of `COc1ccc(Cl)c(S(=O)(=O)Nc2ccc(-c3nc(OC[C@H]4CN(CCOCCOCCOCC(=O)N[C@H](C(=O)N5C[C@H](O)C[C@H]5C(=O)NCc5ccc(-c6scnc6C)cc5)C(C)(C)C)CCO4)c4c(C)n[nH]c4n3)cc2)c1` [DAT2], the values for the IC50 at S6K1, at SGK3 [1] and at SGK1 were 180 nM, 190 nM and 400 nM, respectively. Besides, the “fold more potent inhibition of SGK1 and SGK3 than DAT1” value on SGK3 [1] (SGK1 and SGK3) was 2–4 fold.

Consider `Cc1ccc(F)c(S(=O)(=O)Nc2ccc(-c3nc(OC[C@H]4CN(CCOCCOCCOCC(=O)NCCNc5cccc6c5C(=O)N(C5CCC(=O)NC5=O)C6=O)CCO4)c4cn[nH]c4n3)cc2)c1` (some centres unmarked) [DAT3], for which the IC50 – broadly, the concentration needed to halve the response being measured – on S6K1 was determined as 240 nM; on SGK3 [1], 640 nM; on SGK1, 1000 nM.

Consider `COc1ccc(Cl)c(S(=O)(=O)Nc2ccc(-c3nc(OC[C@H]4CN(CCOCCOCCOCC(=O)NCCNc5cccc6c5C(=O)N(C5CCC(=O)NC5=O)C6=O)CCO4)c4c(C)n[nH]c4n3)cc2)c1` (some centres unmarked) [DAT4], for which the IC50 came out at 190 nM on S6K1, 540 nM at SGK3 [1] and 600 nM on SGK1.

`Cc1ccc(F)c(S(=O)(=O)Nc2ccc(-c3nc(OC[C@H]4CN(CCCCCCOCCOCCOCCOCC(=O)N[C@H](C(=O)N5C[C@H](O)C[C@H]5C(=O)NCc5ccc(-c6scnc6C)cc5)C(C)(C)C)CCO4)c4cn[nH]c4n3)cc2)c1` [DAT9]: the IC50 at S6K1 was 4530 nM; on SGK3 [1], 1790 nM; on SGK1 it was 8990 nM. Further, the remaining activity (as a rule, the signal under treatment as a percentage of the control signal) at 0.001 µM on SGK3 [2] (HEK293, 48 h, 0.001 μM, Figure 2) came to 105%. For the same molecule, the remaining activity at 0.01 µM on SGK3 [2] (HEK293, 48 h, 0.01 μM, Figure 2) is 71%. For the same molecule, the remaining activity at 0.1 µM on SGK3 [2] (HEK293, 48 h, 0.1 μM, Figure 2) is 40%. For the same molecule, on SGK3 [2] (HEK293, 48 h, 1 μM, Figure 2), the remaining activity at 1 µM was 11%. At SGK3 [2] (HEK293, 48 h, 10 μM, Figure 2), the remaining activity at 10 µM is 12%.

Turning to `CS(=O)(=O)N1CCN(Cc2cc3nc(-c4cccc5[nH]ncc45)nc(N4CCOCC4)c3s2)CC1` [GDC0941, 2-(1H-Indazol-4-Yl)-6-(4-Methanesulfonyl-Piperazin-1-Ylmethyl)-4-Morpholin-4-Yl-t Hieno[3,2-d]Pyrimidine, reference compound], the “growth, PI3K or Akt inhibitor monotherapy” value in the test with ZR-75-1 cells and in the test with CAMA-1 cells was “substantially reduced growth” throughout.

Regarding `CC(C)C[C@@H](C=O)NC(=O)[C@H](CC(C)C)NC(=O)[C@H](CC(C)C)NC(=O)OCc1ccccc1` [MG132, reference compound] (Cbz-Leu-Leu-Leu-aldehyde), at SGK3 [2], the “effect on SGK3-PROTAC1-mediated degradation of SGK3” value is given as “prevented” and the “effect on DAT1-induced degradation of SGK3” value is listed as “blocked”.

`NS(=O)(=O)OC[C@@H]1C[C@@H](n2ccc3c(N[C@H]4CCc5ccccc54)ncnc32)C[C@@H]1O` [MLN4924, reference compound]: at SGK3 [2], the “effect on SGK3-PROTAC1-mediated degradation of SGK3” value is listed as “prevented” and the “effect on DAT1-induced degradation of SGK3” value is given as “blocked”.
